Where a name gives a salt, the structure may show the parent alone.
Assay: Weight increase, appearance and flowability after exposure to humidity (hygroscopicity)
Format: physicochemical
Settings: 60% relative humidity at 25° C. for 42 hours
Method: In the following Table 1, the weight increase (%) and the flowability of the compounds of the invention are compared with those of L-carnitine and acetyl L-carnitine inner salts following exposure of the compounds to 60% relative humidity at 25° C. for 42 hours. Reference method:
Pharmaeuropa November 1996.

| Compound | Appearance | Weight increase (%) |
| --- | --- | --- |
| L-Carnitine Magnesium Ascorbyl Phosphate [Example 1] | no variation | 0.12 |
| CC(=O)O[C@H](CC(=O)[O-])C[N+](C)(C)C [acetyl L-carnitine Inner salt, acetyl L-carnitine inner salt, reference compound] | deliquescent | 20 |
| C[N+](C)(C)C[C@H](O)CC(=O)[O-] [L-carnitine Inner salt, L-carnitine inner salt, reference compound] | deliquescent | 19 |
| Acetyl L-Carnitine Magnesium Ascorbyl Phosphate [Example 2] | no variation | 0.14 |

Same assay, conditions: isolated crystalline solid

| Compound | Hygroscopicity of the solid (in words) |
| --- | --- |
| L-Carnitine Magnesium Ascorbyl Phosphate [Example 1] | non-hygroscopic |
| Acetyl L-Carnitine Magnesium Ascorbyl Phosphate [Example 2] | non-hygroscopic |

Same assay, conditions: time needed by a 10-gram sample to pass through a funnel of 4 mm diameter; after 60% relative humidity at 25° C. for 42 hours

| Compound | Flowability [s] |
| --- | --- |
| L-Carnitine Magnesium Ascorbyl Phosphate [Example 1] | 5 |
| Acetyl L-Carnitine Magnesium Ascorbyl Phosphate [Example 2] | 6 |
